Data from patent publication US10233207B2, “Crystalline form of nicotinamide riboside” (W. R. Grace & Co.—Conn., priority 2014, dated 2019).

What was measured:
[1] = high-fat diet supplemented with nicotinamide riboside; cited from earlier work
[2] = format: physicochemical
Description: The instant crystalline Form I of nicotinamide riboside chloride may be provided in one of several different morphologies. For example, the crystalline material may exist in a morphology having a bulk density of about 0.25 to about 0.4 g/mL, or may exist in a morphology having a bulk density of about 0.40 to about 0.65 g/mL. The present disclosure also relates to mixtures of at least these two morphologies in any proportion. FIG. 3A depicts a Scanning Electron Microscopy (SEM) image of the inventive crystalline nicotinamide riboside chloride in a morphology having a bulk density of about 0.25 to about 0.4 g/mL, and FIG. 3B depicts a Scanning Electron Microscopy (SEM) image of the inventive crystalline nicotinamide riboside chloride in a morphology having a bulk density of about 0.40 to about 0.65 g/mL. […] This morphology also appears to provide the product with a slightly higher purity as well. Because of the purity, stability, and color variations in the other morphology (the morphology having a bulk density of about 0.40 to about 0.65 g/mL), in at least some instances a preference exists for the crystalline nicotinamide chloride having a bulk density of about 0.25 to about 0.4 g/mL as it appears to produce higher quality product with more consistency.

[3] = Hygroscopicity / Dynamic Vapor Sorption (DVS) moisture sorption isotherm; format: physicochemical
Method: Moisture sorption isotherms were collected on a DVS-1 system from Surface Measurement Systems UK Ltd. (London, UK) for both crystalline Form I of nicotinamide riboside chloride and for the amorphous form of nicotinamide riboside chloride. Sample sizes were between 9.7 and 14.3 mg of solid material. The relative humidity was started with an initial drying step going from 40% RH to 0% RH. Subsequently, the relative humidity was increased to 95% (sorption), decreased to 0% RH (desorption) and increased again to 95% RH (sorption). Weight equilibration was set per step with a holding time of 1 hour (10% relative humidity step). Individual samples sizes were 12.6568 mg for crystalline Form I and 9.6799 mg for the amorphous sample. FIG. 8A provides a DVS change in mass plot for a sample of the crystalline Form I of nicotinamide riboside chloride, and FIG. 8B provides a DVS isotherm plot for a sample of the crystalline Form I of nicotinamide riboside chloride. FIG. 9A provides a DVS change in mass plot for a sample of the amorphous form of nicotinamide riboside chloride, and FIG. 9B provides a DVS isotherm plot for a sample of the amorphous form of nicotinamide riboside chloride.
FIG. 10 provides a comparison of the sorption curve for crystalline Form I of nicotinamide riboside chloride with the sorption curve for the amorphous sample. […] Even at 70% relative humidity, the weight of the crystalline sample had not increased by more than about 1.0%. These characteristics of the crystalline Form I are advantageous for the handling of the material overall and represent the ability to remain stable over a greater range of working conditions relative to the amorphous form.

In the case of `NC(=O)c1ccc[n+]([C@@H]2O[C@H](CO)[C@@H](O)[C@H]2O)c1` [nicotinamide riboside, Nicotinamide riboside], the “less weight gained than mice on same high-fat diet without nicotinamide riboside” value [1] is listed as 60%.

For `NC(=O)c1ccc[n+]([C@@H]2O[C@H](CO)[C@@H](O)[C@H]2O)c1.[Cl-]`, the “stability to degradation via oxygen or water absorption, compared with morphology of bulk density about 0.40 to about 0.65 g/mL” value [2] was “more stable to degradation via oxygen or water absorption”.

With “3-carbamoyl-1-[(2R,3R,4S5R)-3,4-dihydroxy-5-(hydroxymethypoxolan-2-yl]-pyrin-1-ylium chloride” the “rate of water absorption compared with amorphous material” value ([3]; 0% to 60% relative humidity, sorption curve FIG. 10) was “much less prone to absorption at lower relative humidities than the amorphous material”, the “weight increase of sample (water sorption)” value ([3]; 70% relative humidity) was ≤ 1.0% and the “water uptake (water vapor sorption isotherm)” value ([3]; relative humidity of up to 60%) was “not more than 0.5 wt %”. The “water uptake (water vapor sorption isotherm)” value ([3]; relative humidity of up to 70%) was “not more than 1.0 wt %”.
